# Measurements from the NIST ThermoML archive (doi:10.1016/j.fluid.2019.05.020).
# Numbers after ± are expanded uncertainties.
# Columns and labels:
# [1] = Molar enthalpy of transition or fusion; settings: Crystal; DSC
# [2] = for Normal melting temperature: Crystal, DTA
Molar enthalpy of transition or fusion [1],Normal melting temperature [2],"Triple point temperature ([2]; Crystal 2, DSC)",Compound
7.06 ± 0.932 kcal/mol,6.69 ± 0.55 °C,275.64 ± 4.1 K,CCCCCCCCCCO [decan-1-ol]
6.25 ± 0.287 kcal/mol,32.07 ± 0.49 °C,,CCCCCCCCCC(=O)O [decanoic acid]
7.99 ± 0.621 kcal/mol,45.4 ± 0.65 °C,,CCCCCCCCCCCC(=O)O [dodecanoic acid]
10.4 ± 1.24 kcal/mol,37.56 ± 0.91 °C,,CCCCCCCCCCCCCCO [1-tetradecanol]
7.53 ± 2.13 kcal/mol,24.63 ± 0.39 °C,,CCCCCCCCCCCCO [dodecan-1-ol]

# Continued, compound first:
Compound,Molar enthalpy of transition or fusion [1],Normal melting temperature [2],"Triple point temperature ([2]; Crystal 2, DSC)"
CCCCCCCCCCCCCC(=O)O [tetradecanoic acid],9.92 ± 1.63 kcal/mol,55.90 ± 0.73 °C,
"CCCCCCCCCCCCCCCC(=O)OCC(COC(=O)CCCCCCCCCCCCCCC)OC(=O)CCCCCCCCCCCCCCC [1,2,3-propanetriyl tri(hexadecanoate)]",38.3 ± 2.1 kcal/mol,66.29 ± 0.65 °C,
CCCCCCCCCCCCCCCC(=O)O [hexadecanoic acid],11.7 ± 0.645 kcal/mol,64.02 ± 0.55 °C,
CCCCCCCCCCCCCCCCCC(=O)O [octadecanoic acid],13.4 ± 1.12 kcal/mol,70.48 ± 0.49 °C,
